Values quoted from earlier work as cited in the CATMoS acute toxicity set (Mansouri et al. 2021).
“And” between values parts separate entries of the source, which are not always exact repeats. Equal values may be shown once.

Assay: rat acute oral toxicity
Conditions: in vivo

| Compound | LD50 |
| --- | --- |
| C[C@]12C=CC(=O)C=C1CC[C@@H]1[C@@H]2[C@@H](O)C[C@@]2(C)[C@H]1CC[C@]2(O)C(=O)COC(=O)CCCc1ccc(N(CCCl)CCCl)cc1 | 530 mg/kg |
| Cc1cccc(C)c1CCNC(N)=O | 1500 mg/kg |
| CN(C)S(=O)(=O)c1c(Cl)c(Cl)c(Cl)c2[nH]c(C(F)(F)F)nc12 | 4.77 mg/kg |
| C=CC(=O)N1CN(C(=O)C=C)CN(C(=O)C=C)C1 | 350 mg/kg |
| NC[C@H]1CC[C@H](C(=O)Oc2ccc(CCC(=O)O)cc2)CC1 | 1500 mg/kg |
| CCCCC(CC)CNCC(C)(N)CN(C)CC(CC)CCCC (centres undefined) | 1000 mg/kg |
| OCC[N+](CCO)(CCO)CCO | 2250 mg/kg |
| CN1CCC(=C2c3ccccc3Sc3ccccc32)CC1 | 1190 mg/kg and 550 mg/kg |
| O=C(Nc1ccc([N+](=O)[O-])cc1)OCc1cccnc1 | 14 mg/kg |
| CC=CCO | 793 mg/kg |
| CCCCCCCCCCCCCCCCCCP(=O)(OC)OC | 15400 mg/kg |
| O=C1N=C2c3ccccc3N=CN2C1=Cc1ccccc1 | 325 mg/kg |
| O=C(OC1CCC(N2CCCCC2)CC1)c1ccccc1 (centres undefined) | 780 mg/kg |
| CCOC(=O)/C=C1/SC(N2CCCCC2)C(=O)N1C (centres undefined) | 10200 mg/kg |
| CCN(CCN(C)C)c1ccccc1 | 1150 mg/kg |
| Nc1nc2cccc(Cl)c2o1 | 410 mg/kg |
| CCCOP(=S)(OCCC)Oc1ccc(S(C)=O)cc1 (centres undefined) | 50 mg/kg |
| NCCOCCO | 3000 mg/kg |
| OC(CCN1CCCCC1)(c1ccccc1)C1CC2C=CC1C2 (centres undefined) | 750 mg/kg |
| COC(F)(F)C(F)Cl (centres undefined) | 5130 mg/kg |
| CC(Cl)(CCl)C(=O)O (centres undefined) | 8000 mg/kg |
| O=C1CCCCCCCCCCCN1 | 2330 mg/kg |
| O=C(O)C1CCc2cc(C3CCCCC3)c(O)cc21 (centres undefined) | 450 mg/kg |

| Compound | LD50 |
| --- | --- |
| CCCCC(CC)(C(=O)OCC)C(=O)OCCN(CC)CC (centres undefined) | 638 mg/kg |
| CCOC(=O)CC(=O)CCl | 200 mg/kg |
| C#CC(=O)O | 100 mg/kg |
| O=C(O)Cc1ccc2c(c1)C(=O)c1ccccc1CO2 | 143 mg/kg |
| CNC(=O)Oc1cc(C)c(S(C)=O)c(C)c1 (centres undefined) | 42 mg/kg |
| CCOC(=O)COc1ccc2c(C)c(CCN(CC)CC)c(=O)oc2c1 | 8000 mg/kg |
| COc1cc(C(=O)N(C)C)nn1-c1cccc(Cl)c1 | 790 mg/kg |
| CCC(C)=CCCC(C)=CC#N | 2600 mg/kg |
| CC(C)NC(=O)N1CC(=O)N(c2cc(Cl)cc(Cl)c2)C1=O | 3500 mg/kg |
| O=S1(=O)CC(Cl)C(Cl)C1 (centres undefined) | 482 mg/kg |
| COc1cc(C(=O)OC2CCC(N3CCCCC3)CC2)cc(OC)c1OC (centres undefined) | 650 mg/kg |
| ClCCC[Si](Cl)(Cl)Cl | 200 mg/kg |
| CN(C)CCNN | 2110 mg/kg |
| CCCCCCCCCCCCCCCC[N+](C)(C)CC | 500 mg/kg |
| COP(=O)(OC1CCCCC1)SC (centres undefined) | 240 mg/kg |
| Cc1ccc(S(=O)(=O)/C=C/C#N)cc1 | 1440 mg/kg |
| O=C(O)/C=C\Cl | 320 mg/kg |
| O=C(O)c1c(O)c(O)cc2ccccc12 | 24500 mg/kg |
| CCCCCCCCc1ccc(C(CBr)OCCCC)cc1 (centres undefined) | 250 mg/kg |
| O=S1(=O)CCCO1 | 100 mg/kg |
| c1ccc(COCc2ccccc2)cc1 | 2500 mg/kg |
| CC(=O)OC(c1ccc(Cl)c(Cl)c1)C(Cl)(Cl)Cl (centres undefined) | 10000 mg/kg |
| OB(O)c1ccccc1 | 740 mg/kg |

| Compound | LD50 |
| --- | --- |
| Cn1c(-c2ccccc2)cc(-c2ccccc2)[n+]1C | 206 mg/kg and 470 mg/kg |
| COc1cc(C)c2c(Oc3cccc(C(F)(F)F)c3)c(OC)cc(NC(C)CCCN)c2n1 (centres undefined) | 416 mg/kg |
| CCOC(=O)Nc1cccc(OC(=O)Nc2ccccc2)c1 | 9600 mg/kg |
| CCNC(C)CN1CCc2c(c(=O)oc3ccccc23)C1 (centres undefined) | 300 mg/kg |
| Cc1csc2c(Cl)cccc12 | 300 mg/kg |
| ClCC1C(CCl)C2(Cl)C(Cl)=C(Cl)C1(Cl)C2(Cl)Cl (centres undefined) | 200 mg/kg |
| CCSCc1cnc(C)c(O)c1CO | 3770 mg/kg |
| Cc1cccc2sc3nncn3c12 | 250 mg/kg |
| CC(C)OC(=O)C(C(=O)OC(C)C)=C1SC=CS1 | 2060 mg/kg |
| CC(C)N=C1SC(=NOC(=O)N(C)SN(C)C(=O)ON=C2SC(=NC(C)C)SC2(C)C)C(C)(C)S1 | 113 mg/kg |
| Fc1cccc(C(F)(F)F)n1 | 50 mg/kg |
| CCSCCOP(=S)(OC)OC | 75 mg/kg |
| CCNC(=O)/C=C/c1cccc(Br)c1 | 4440 mg/kg |
| CC(Br)CBr (centres undefined) | 741 mg/kg |
| c1ccc(C2=NCOCS2)cc1 | 650 mg/kg |
| C1CCc2nnnn2CC1 | 140 mg/kg |
| CNC(=O)Oc1cc([N+](C)(C)C)ccc1C | 2.5 mg/kg |
| CCN(CC)CCNC(=O)c1cc(Cl)c(N)cc1OCc1ccccc1 | 220 mg/kg |
| O=S1(=O)OCC2C(CO1)C1(Cl)C(Cl)=C(Cl)C2(Cl)C1(Cl)Cl (centres undefined) | 18 mg/kg |
| CC(C)[N+](C)(CCC(C(N)=O)(c1ccccc1)c1ccccc1)C(C)C | 1030 mg/kg |
| O=C(c1ccccc1)c1cccc2c1CCC2C(=O)O (centres undefined) | 41.1 mg/kg |
| COP(=S)(OC)SCSc1ccccc1Cl | 13 mg/kg |
| C=Cc1ccc(Cl)cc1 | 5200 mg/kg |
